We go through eleven compounds from PMC6525071 (Cell chemical biology, 2019).

For data set [1], the system named is SUDHL6 cells. As to the kind of experiment: Untargeted lipidomics. It is filed as cell-based. The settings on record: for effect of co-treatment on IKE-induced lipidomic changes: 10 μM co-treatment with 500 nM IKE.
The next data set has as its system DLBCL cell lines. As to the kind of experiment: Rescue of IKE-induced cell death by co-treatment with ferroptosis inhibitors. Format: cell-based.
The test system of another data set is RIVA. Briefly: DLBCL cell line sensitivity to IKE, Cell Titer-Glo viability. Format: cell-based. The settings on record: read-out: cell line sensitivity class (IC50), IKE 24 hours. For orientation: In ATP-based viability assays light output follows the ATP content of the culture.
The nature of data set [2]: Pharmacokinetic analysis in NCG mice bearing SUDHL6 xenografts. Format: in vivo, mouse.
A further data set relates to caspase-3. As to the kind of experiment: Caspase-3 western blot on tumor tissue. The settings on record: upon IKE treatment, efficacy study. It is filed as in vivo, mouse. (In general: A western blot detects proteins with antibodies after separation by electrophoresis.)
For data set [3], the system named is SUDHL-6 cells. Briefly: Lipid ROS by flow cytometry with C11-BODIPY. Format: cell-based. On the technique in general: Flow cytometry measures light scatter and fluorescence of single cells or particles in a stream.
Data set [4] deals with SUDHL6 xenograft tumor tissue. Briefly: Immunofluorescence on frozen tumor sections from efficacy study. Format: in vivo, mouse.
The next data set deals with U937. As to the kind of experiment: DLBCL cell line sensitivity to IKE, Cell Titer-Glo viability. Format: cell-based. The settings on record: read-out: cell line sensitivity class (IC50), U937, IKE 24 hours.
Another data set deals with cell lines. The settings on record: ref Larraufie et al., 2015, cited from earlier work.
Data set [5] in a line: Pharmacokinetic analysis in mice with three administration routes. It is filed as in vivo, mouse. The settings on record: single dose IP, IV, PO, NOD/SCID mice, 5% DMSO in HBSS at pH 4.
The test system of the next data set is LY7. Briefly: DLBCL cell line sensitivity to IKE, Cell Titer-Glo viability. Format: cell-based. The note with it: read-out: cell line sensitivity class (IC50), LY7, IKE 24 hours.
The test system of data set [6] is SUDHL6 xenograft tumor tissue. Briefly: GSH in tumor tissue after a single IKE dose. It is filed as in vivo, mouse. The note with it: single dose 50 mg/kg IKE IP, starting at 4 hours.
The test system of data set [7] is SUDHL6 xenograft tumor tissue. As to the kind of experiment: RT-qPCR in tumor tissue after a single IKE dose. The settings on record: single dose 50 mg/kg IKE, starting at 3 h. It is filed as in vivo, mouse.
For data set [8] the following is noted: ref Larraufie et al., 2015; cited from earlier work.
The test system of a further data set is HBL1. As to the kind of experiment: DLBCL cell line sensitivity to IKE, Cell Titer-Glo viability. Format: cell-based. The settings on record: read-out: cell line sensitivity class (IC50), HBL1, IKE 24 hours.
Data set [9] can be described thus: Mouse weight during efficacy study. It is filed as in vivo. The note with it: starting from day 9.
For the next data set, the system named is LY8. As to the kind of experiment: DLBCL cell line sensitivity to IKE, Cell Titer-Glo viability. Format: cell-based. The note with it: read-out: cell line sensitivity class (IC50), LY8, IKE 24 hours.
The test system of data set [10] is SUDHL-6 cells. As to the kind of experiment: Reduced glutathione measurement in cells. It is filed as cell-based.
The subject of data set [11] is SUDHL6 xenograft tumor tissue. Briefly: TBARS assay on tumor tissue from efficacy study. Format: in vivo, mouse.
In data set [12] the test system is SUDHL-6 cells. As to the kind of experiment: RT-qPCR gene expression in cells. Format: cell-based. The settings on record: for effect of co-treatment on IKE-induced upregulation of lipid metabolism genes: 10 μM co-treatment with 500 nM IKE.
The subject of data set [13] is SUDHL-6 cells. Briefly: Immunofluorescence of dihydropyridine-MDA-lysine adduct in cells. It is filed as cell-based. The settings on record: IKE treatment.
The subject of a further data set is cells. As to the kind of experiment: Cell survival test of free fatty acids in the presence or absence of IKE. Format: cell-based. The note with it: for toxicity of free fatty acid to cells: high concentration (100 μM); for effect of free fatty acid on ferroptosis: 10 μM, in the presence of IKE.
Data set [14] relates to SUDHL6 cells. As to the kind of experiment: IKE PEG-PLGA cellular activity, CellTiter-Glo viability.
For another data set, the system named is GSH. The note with it: ref Narang et al., 2007; Lo et al., 2010; cited from earlier work.
Where [15] appears, read: IP injection, SUDHL6 NCG xenograft mice.
The mark [16] stands for this setting: single dose 50 mg/kg IP, SUDHL6-xenograft-bearing NCG mice.
The mark [17] stands for this setting: 10 μM fer-1 co-treatment with 500 nM IKE.
Where [18] appears, read: 10 μM fer-1 with 500 nM IKE, 6 hours, SUDHL6 cells.

Turning to `CC(=O)N(O)CCCCCNC(=O)CCC(=O)N(O)CCCCCNC(=O)CCC(=O)N(O)CCCCCN` [DFO, deferoxamine], the “effect of co-treatment on IKE-induced lipidomic changes” value in the data set with SUDHL6 cells [1] was “only partially eliminated lipidomic changes”. Besides, the “effect of DFO co-treatment on IKE-induced cell death” value with DLBCL cell lines (in culture) is given as “inhibited IKE-induced cell death”.

As for `CC(C)Oc1ccc(C(=O)Cn2ccnc2)cc1-n1c(CN2CCN(C(=O)COc3ccc(Cl)cc3)CC2)nc2ccccc2c1=O` [IKE, imidazole ketone erastin], in the data set with RIVA, the IC50 (commonly the concentration needed to halve the response being measured) lay within 100 to 10000 nM. In data set [2] (setting [15]), the T1/2 plasma was determined as 1.83 h and the T1/2 tumor came to 3.50 h. In [2] (setting [16]), the highest plasma concentration is 5.2 µg/mL, the highest tumor accumulation was 2.5 µg/mL, the “time of highest plasma concentration” value was determined as 1.35 h and the “time of highest tumor accumulation” value is given as 3.30 h. Besides, in the data set on caspase-3, the “caspase-3 activity in tumor tissues” value is “no increase in caspase-3 activity”. Also, the “lipid ROS (C11-BODIPY)” value in the data set with SUDHL-6 cells [3] (different concentrations of IKE) is “dose-dependent increase”. Also, in data set [4] (IKE 23 mg/kg daily for 14 days), the “increase in 8-OH-dG intensity in tumor sections” value is on record as 1.8 fold, the “increase in COX-2 intensity in tumor sections” value turned out to be 2.0 fold and the “increase in MDA intensity in tumor sections” value is listed as 1.8 fold. For the same compound, in data set [4] (IKE 40 mg/kg daily for 14 days), the “increase in 8-OH-dG intensity in tumor sections” value was 2.2 fold, the “increase in COX-2 intensity in tumor sections” value amounted to 2.8 fold and the “increase in MDA intensity in tumor sections” value is recorded as 2.0 fold. Further, in the data set on U937, the half-inhibitory concentration (IC50) was over 10000 nM. Besides, the “potency improvement comparing to erastin” value in the data set with cell lines (in some cell lines) is over 100 x. For the same compound, the potency result in the data set with cell lines is “nanomolar”. Also, the “comparison of dosage routes by IKE concentration over eight hours” value in data set [5] is “IP to be the most effective and practical means”. In addition, in the data set on LY7, the IC50 is over 10000 nM. Besides, the “GSH depletion in tumor tissue” value in data set [6] is given as “over 50%”. Besides, in data set [7], the “CHAC1 mRNA upregulation in tumor” value came to 2 fold, the “PTGS2 mRNA upregulation in tumor” value is 3–5 fold and the “SLC7A11 mRNA upregulation in tumor” value was 3–5 fold. In data set [8], the metabolic stability entry is “high”. Further, in the data set on HBL1, the IC50 is 100 to 10000 nM. For the same compound, the mouse weight entry in data set [9] (IKE 23 mg/kg daily) is given as “weight loss”. Also, in data set [9] (IKE 40 mg/kg daily), the mouse weight result was “weight loss”. In addition, the half-maximal inhibitory concentration (IC50) in the data set on LY8 is under 100 nM. Besides, the “cellular level of reduced glutathione (GSH)” value with SUDHL-6 cells [10] (SUDHL6 cells, different concentrations of IKE, 24 hours) is reported as “dose-dependent GSH depletion”. Moreover, the IC50 in the data set with SUDHL-6 cells [10] (read-out: IC50 of GSH depletion, SUDHL-6 cells, 24 h) was found to be 34 nM. Also, the “MDA increase (TBARS, MDA-TBA adduct fluorescence)” value in data set [11] (IKE 23 mg/kg) came out at 1.4 fold. The “MDA increase (TBARS, MDA-TBA adduct fluorescence)” value in data set [11] (IKE 40 mg/kg) turned out to be 1.8 fold. For the same compound, the “GPX4, CBS and ACSL4 expression” value in the data set on SUDHL-6 cells [12] (IKE treatment, data not shown) is on record as “not upregulated”. In addition, the “SLC7A11, PTGS2 and CHAC1 expression” value with SUDHL-6 cells [12] (SUDHL-6 cells, 500 nM IKE) is listed as “significantly increased”. Further, the dihydropyridine-MDA-lysine-adduct abundance entry in the data set on SUDHL-6 cells [13] is “increased”.

Turning to `CCCCC/C=C\C/C=C\C/C=C\C/C=C\CCCC(=O)O` [arachidonic acid], the “toxicity of free fatty acid to cells” value in the data set with cells was “toxic to cells”.

`CC/C=C\C/C=C\C/C=C\C/C=C\C/C=C\CCCC(=O)O` [eicosapentaenoic acid]: the “toxicity of free fatty acid to cells” value in the data set on cells was “toxic to cells”.

As to `CCOc1ccccc1-n1c(C(C)N2CCN(C(=O)COc3ccc(Cl)cc3)CC2)nc2ccccc2c1=O` (stereo not drawn) [erastin, reference compound], the metabolic stability result in data set [8] was “metabolically labile”.

As to `CCOC(=O)c1ccc(NC2CCCCC2)c(N)c1` [fer-1, ferrostatin-1], the “effect of co-treatment on IKE-induced lipid ROS signal” value in the data set with SUDHL-6 cells [3] (10 μM fer-1 co-treatment) was “inhibited this signal”. Also, in the data set with SUDHL6 cells [1] (setting [17]), the MAG lipids entry is reported as “decreased” and the TAG lipids result is “significantly increased”. In the data set on SUDHL6 cells [14], the “effect of fer-1 co-treatment on cell death induced by IKE and IKE PEG-PLGA NPs” value is given as “rescued cell death”. In the data set on SUDHL-6 cells [12] (SUDHL6 cells), the “effect of co-treatment on IKE-induced upregulation of lipid metabolism genes” value is given as “partially reversed”. In the data set on SUDHL-6 cells [12] (setting [18]), the “effect of co-treatment on IKE-induced CHAC1 upregulation” value is “did not inhibit CHAC1 upregulation” and the “effect of co-treatment on IKE-induced PTGS2 upregulation” value is “inhibited PTGS2 upregulation”. In the data set on DLBCL cell lines (DLBCL cell lines), the “effect of fer-1 co-treatment on cell death induced by IKE” value is listed as “rescued cell death”.

Take `CCCCCCCC/C=C\CCCCCCCC(=O)O` [oleic acid]: the “effect of free fatty acid on ferroptosis” value in the data set on cells is “protected against ferroptosis”.

With `CCCCCC/C=C\CCCCCCCC(=O)O` [palmitoleic acid], the “effect of free fatty acid on ferroptosis” value with cells is recorded as “protected against ferroptosis”.

With `O=C(O)c1cc(/N=N/c2ccc(S(=O)(=O)Nc3ccccn3)cc2)ccc1O` [sulfasalazine], the “IC50 for GSH depletion” value with GSH is given as “millimolar range”.

As for `OCCS` [β-ME, β-mercaptoethanol], the “effect of co-treatment on IKE-induced lipidomic changes” value in the data set on SUDHL6 cells [1] is listed as “reversed these effects”. For the same compound, the “effect of co-treatment on IKE-induced GSH depletion” value in the data set on SUDHL-6 cells [10] (10 μM β-ME co-treatment, SUDHL6 cells, 24 hours) was “reversed”. In the data set with SUDHL-6 cells [12] (SUDHL6 cells), the “effect of co-treatment on IKE-induced upregulation of lipid metabolism genes” value is given as “partially reversed”. For the same compound, in the data set on SUDHL-6 cells [12] (10 μM β-ME with 500 nM IKE, 6 hours, SUDHL6 cells), the “effect of co-treatment on IKE-induced upregulation of SLC7A11, PTGS2 and CHAC1” value is on record as “prevented”.

Regarding `CCCCC/C=C\C/C=C\C/C=C\CCCCC(=O)O` [γ-linolenic acid], in the data set on cells, the “toxicity of free fatty acid to cells” value is listed as “toxic to cells”.
